From patent publication US8088819B2, “Derivatives of substituted 3-phenyl-1-(phenylthienyl)propan-1-ones and of 3-phenyl-1-(phenylfuranyl) propan-1-ones, preparation and use” (priority 2006, dated 2012)

Assays:
[1] = test system: dyslipidemic E2/E2 mice; experiment: Plasma lipid assays and lipoprotein distribution in the E2/E2 mouse; format: in vivo
Procedure: The antilipemic and HDL-cholesterol synthesis stimulating properties of the compounds according to the invention were evaluated in vivo by assay of the plasma lipids, analysis of the distribution of cholesterol and of triglycerides in the various plasma lipoprotein fractions and measurement of the expression of the target genes of the PPARs in the liver and skeletal muscle after treatment of dyslipidemic E2/E2 mice with compound 2.
The murine model used is the ApoE2/E2 type mouse, a transgenic mouse for the E2 isoform of human apolipoprotein E (Sullivan P M et al., 1998). In humans, this apolipoprotein, a constituent of the low and very low density lipoproteins (LDL-VLDL), occurs in three isoforms E2, E3 and E4. The E2 form has a mutation on an amino acid in position 158, which greatly weakens the affinity of this protein for the LDL receptor. The clearance of the VLDLs is accordingly almost zero. There is then accumulation of low-density lipoproteins and mixed hyperlipidemia called type III (high cholesterol and triglycerides).
Apo E2/E2 transgenic mice were kept under a cycle of light and darkness of 12/12 hours at a constant temperature of 20±3° C. After acclimation for one week, the mice were weighed and put into groups of 6 animals selected so that the distribution of their body weights and of their plasma lipid levels determined for the first time before the experiment are uniform. The test compounds were suspended in carboxymethylcellulose (Sigma C4888) and administered by intragastric force feeding, at a rate of once per day for 13 days at the chosen dose. The animals had free access to water and to food (standard diet). At the end of the experiment, the animals were anesthetized after fasting for 4 hours, a blood sample was taken using anticoagulant (EDTA), then the mice were weighed and euthanased. The plasma was separated by centrifugation at 3000 rev/min for 20 minutes, and the samples were stored at +4° C.
The various lipid fractions (VLDL, LDL, HDL) of the plasma were separated by gel filtration chromatography. The concentrations of cholesterol and of triglycerides were then measured in each fraction by enzyme assays (bioMérieux-Lyon-France) following the supplier's recommendations.
The plasma concentrations of total cholesterol were measured by enzyme assays (bioMérieux-Lyon-France) following the supplier's recommendations.
The low-density lipoproteins (VLDL and LDL) were precipitated with phosphotungstate. The precipitate was removed by centrifugation. The HDL-cholesterol present in the supernatant was quantified by enzyme assays (bioMérieux-Lyon-France) following the supplier's recommendations.

[2] = biological target: T1, hPPARgamma (Homo sapiens, UniProt P37231); experiment: PPAR activation: Gal4-hPPARγ chimera luciferase transactivation in COS-7 cells, Method 2; format: cell-based; conditions: COS-7, 24 h, Method 2
T1 construct: expressed in transfected cells; host or cells: COS-7 (monkey kidney fibroblasts)
T1 sequence (P37231 238-503 limits assumed): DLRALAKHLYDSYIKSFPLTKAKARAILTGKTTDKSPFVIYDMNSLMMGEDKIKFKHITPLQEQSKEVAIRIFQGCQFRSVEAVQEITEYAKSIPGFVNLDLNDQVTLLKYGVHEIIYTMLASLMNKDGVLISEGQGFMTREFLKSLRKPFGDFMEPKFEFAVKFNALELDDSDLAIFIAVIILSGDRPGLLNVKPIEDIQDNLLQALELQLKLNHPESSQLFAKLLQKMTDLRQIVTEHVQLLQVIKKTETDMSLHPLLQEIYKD
Summary of the method: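 Transactivation by a Gal4 DNA-binding domain–hPPARγ ligand-binding domain chimera with a Gal4(RE)-luciferase reporter, transfected into COS-7 cells (plasmid ratio 1/10).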

[3] = biological target: T2, hPPARdelta (Homo sapiens, UniProt Q03181); experiment: PPAR activation: Gal4-hPPARδ chimera luciferase transactivation in COS-7 cells, Method 2; format: cell-based; conditions: COS-7, 24 h
T2 construct: expressed in transfected cells; host or cells: COS-7 (monkey kidney fibroblasts)
T2 sequence (Q03181 211-439 limits assumed): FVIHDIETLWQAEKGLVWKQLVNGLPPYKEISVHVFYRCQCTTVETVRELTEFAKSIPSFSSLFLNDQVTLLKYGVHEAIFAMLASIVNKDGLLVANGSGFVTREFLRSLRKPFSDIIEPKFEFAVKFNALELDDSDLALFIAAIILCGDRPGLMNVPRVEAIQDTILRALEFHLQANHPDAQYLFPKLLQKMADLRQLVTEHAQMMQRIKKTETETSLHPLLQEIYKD
Summary of the method: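 COS-7 cells were transfected with Gal4-PPAR LBD chimera plus Gal4(RE)_TkpGL3 luciferase reporter (1/10) and seeded serum-free for 4 h. Compounds at 10^−5 to 100 μm were applied for 24 h at 37° C in 1% lipid-free synthetic serum. Luciferase was read after lysis, and EC50 derived.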

[4] = 50 mpk oral, 7 and 13 days, vs control animals

| Structure (SMILES) | plasma HDL-cholesterol level [1, 4] | plasma total cholesterol level [1, 4] | level of triglycerides present in the VLDL ([1]; 50 mpk, 13 days) | plasma HDL-cholesterol level (distribution of cholesterol in plasma lipoprotein fractions) ([1]; 50 mpk, 13 days) | plasma levels of LDL and VLDL (distribution of cholesterol in plasma lipoprotein fractions) ([1]; 50 mpk, 13 days) | Emax ([2]; maximum percentage response relative to the reference rosiglitazone, read-out: hPPARgamma % max) [%] | EC50 ([2]; 1% Ultroser, read-out: hPPARgamma EC50) [µM] | EC50 ([3]; 1% Ultroser) [µM] | Emax ([3]; maximum percentage response relative to the reference GW501516, read-out: hPPARdelta % max) [%] |
| --- | --- | --- | --- | --- | --- | --- | --- | --- | --- |
| CC(C)(Oc1ccc(CCC(=O)c2ccc(-c3ccc(C(F)(F)F)cc3)s2)c(Cl)c1Cl)C(=O)O [Compound 2, 2-(2,3-dichloro-4-(3-oxo-3-(5-(4-(trifluoromethyl)phenyl)thien-2-yl)propyl)phenoxy)-2-methylpropanoic acid] | increased significantly | lowered significantly | lowered | increased | significant decrease |  |  |  |  |
| CC(C)(Oc1ccc(CCC(OCc2ccccc2)c2ccc(-c3ccc(C(F)(F)F)cc3)s2)c(Cl)c1Cl)C(=O)O (stereo not drawn) [Compound 7, 2-(4-(3-(benzyloxy)-3-(5-(4-(trifluoromethyl)phenyl)thien-2-yl)propyl)-2,3-dichlorophenoxy)-2-methylpropanoic acid] |  |  |  |  |  | 40 | 1.7 | 0.03 | 92 |
